Patent publication US9290517B2, “Azabenzimidazole hexahydrofuro[3,2-b]furan derivatives” (Merck Sharp & Dohme Corp., priority 2012, dated 2016)

What was measured:
[1] = target: recombinant human AMPK complex 7 (containing α2β1γ1) (Homo sapiens (Human), UniProt P54646+Q9Y478); assay: in vitro AMPK activation assay (AMPKSAMSF), complex 7; type: biochemical; conditions: for Emax: 10-point titration, expressed as % maximum AMP activation; for EC50: inflection point reflecting 50% of the maximum activation, table head names AMPK complex 7
Procedure: AMPKSAMSF (in vitro AMPK activation assay)
The recombinant human AMPK complex 1 (containing α1β1γ1) or AMPK complex 7 (containing α2β1γ1) was obtained from baculovirus expression system. Recombinant viruses were generated by cotransfection of AMPK/pBacPak9 clones with Baculogold baculovirus DNA (Pharmingen) in spodoptera frugiperda 21 cells according to the manufacturer's instructions. Each round of virus amplification was performed for 5 days in Grace's medium containing 10% serum. Virus that had been subjected to three rounds of amplification was used for all protein production procedures. To express the AMPK complex, sf21 cells were adapted to serum free medium (SF900II, Invitrogen) by sequential dilution from serum containing stocks into SF900II medium and maintained in shaker flasks at 90 rpm at 27° C. The recombinant AMPK enzyme complex was produced by triple infection, one recombinant virus for each of the subunits, in sf21 cells under serum free conditions. Cells were infected in log phase, 1×10^6 cells/ml, at a multiplicity of infection of 5. Cells were harvested by centrifugation at 10,000×g for 15 minutes after 72 hours of infection with viruses. The insect cell pellet from 2 liters of culture was resuspended in 50 ml lysis buffer (20 mM Tris-HCl, 50 mM NaCl, 50 mM NaF, 30 mM Na PPi, 0.25 M sucrose, 10 mM ZnCl2, 2 mM DTT, 0.4 mg/ml digitonin) and subjected to two cycles of freeze-thaw lysis in a dry-ice ethanol bath. Insoluble material was removed by centrifugation at 10,000×g and the supernatant was fractionated with use of polyethylene glycol (PEG). The protein fraction precipitating between 2.5 and 6% PEG was used for further purification using a Blue-Sepharose step (Zhou et al, J. Clin. Invest. 108, 1167-1174, 2001).
The in vitro AMPK activation assay is performed in a volume of 30 μl in a 384-well plate. Enzyme reactions were assembled in the microtiter plate by adding 15 μl of 2× enzyme in assay buffer (20 mM HEPES, pH 7.3, 5 mM MgCl2, 3 mM DTT, 0.01% Brij 35 and CamK Kinase, to activate AMPK) to wells which contained either DMSO or compound. The reaction was initiated with the addition of 15 μl 2× substrate mixture containing 200 μM ATP, and 3.0 μM fluorescently labeled SAMS (5-FAM-HMRSAMSGLHLVKRR-COOH) in assay buffer. After 45-minute incubation at 25° C., the reaction was stopped by the addition of 70 μl stop buffer (100 mM HEPES, pH 7.3, 40 mM EDTA, 0.015% Brij 35). Phosphorylated 5-FAM SAMS product is assessed using a Caliper EZ Reader LabChip microfluidics reader. Product conversion is determined by calculating the peak heights of the substrate and product and reporting the product/(product+substrate) peak ratio. The 10-point titration data were expressed as % maximum AMP activation. The results were plotted using 4 parameter fit and the inflection point reflecting 50% of the maximum activation was reported as the EC50.

ob/ob and db/db mice = conditions: following 8 weeks of administration; cited from earlier work

Chain of recombinant human AMPK complex 7 (containing α2β1γ1) (P54646 whole entry): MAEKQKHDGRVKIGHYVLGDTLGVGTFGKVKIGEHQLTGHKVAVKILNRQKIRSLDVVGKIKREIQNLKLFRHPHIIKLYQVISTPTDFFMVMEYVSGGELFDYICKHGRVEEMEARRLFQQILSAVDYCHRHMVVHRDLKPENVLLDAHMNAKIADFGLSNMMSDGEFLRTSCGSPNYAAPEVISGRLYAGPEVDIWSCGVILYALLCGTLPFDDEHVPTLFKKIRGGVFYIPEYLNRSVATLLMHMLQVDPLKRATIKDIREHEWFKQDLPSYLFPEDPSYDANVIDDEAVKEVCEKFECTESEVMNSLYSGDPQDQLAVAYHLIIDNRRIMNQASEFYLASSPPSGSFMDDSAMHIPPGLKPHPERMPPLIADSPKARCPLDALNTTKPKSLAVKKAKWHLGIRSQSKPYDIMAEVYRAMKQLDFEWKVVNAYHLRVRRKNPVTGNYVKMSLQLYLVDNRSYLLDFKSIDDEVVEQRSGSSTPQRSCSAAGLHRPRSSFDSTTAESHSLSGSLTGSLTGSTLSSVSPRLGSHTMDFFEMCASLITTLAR
Chain of recombinant human AMPK complex 7 (containing α2β1γ1) (Q9Y478 whole entry): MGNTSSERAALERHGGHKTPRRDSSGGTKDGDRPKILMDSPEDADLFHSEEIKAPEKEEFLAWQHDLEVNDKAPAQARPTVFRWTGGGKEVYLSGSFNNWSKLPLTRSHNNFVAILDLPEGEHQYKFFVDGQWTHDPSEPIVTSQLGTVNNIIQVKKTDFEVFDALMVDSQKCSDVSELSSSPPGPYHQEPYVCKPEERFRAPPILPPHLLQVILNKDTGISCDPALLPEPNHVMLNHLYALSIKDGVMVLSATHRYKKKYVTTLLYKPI
Chain of recombinant human AMPK complex 7 (containing α2β1γ1) (P54619 whole entry partner): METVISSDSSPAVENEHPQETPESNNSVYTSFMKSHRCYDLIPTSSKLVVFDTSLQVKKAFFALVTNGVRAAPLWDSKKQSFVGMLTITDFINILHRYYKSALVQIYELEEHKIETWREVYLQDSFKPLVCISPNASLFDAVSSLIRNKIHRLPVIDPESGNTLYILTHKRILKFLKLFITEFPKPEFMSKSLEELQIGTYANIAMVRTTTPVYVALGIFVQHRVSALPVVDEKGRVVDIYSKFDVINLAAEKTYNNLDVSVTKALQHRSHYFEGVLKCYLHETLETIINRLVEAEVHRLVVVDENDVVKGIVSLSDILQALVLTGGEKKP

Emax [1] | EC50 [1] | SMILES | blood glucose reduction (ob/ob and db/db mice)
281% | 4 nM | Cn1c(-c2ccc(-c3ccc(-c4nc5nc(O[C@@H]6CO[C@H]7[C@@H]6OC[C@H]7O)[nH]c5cc4Cl)cc3)cc2)cnc1N [Example 127] | 
303% | 3 nM | O[C@@H]1CO[C@H]2[C@@H]1OC[C@H]2Oc1nc2nc(-c3ccc(-c4ccc(C5Cc6nccn6C5)cc4)cc3)c(Cl)cc2[nH]1 (stereo partly drawn) [Example 126] | 
291% | 2 nM | Oc1ccnc(-c2ccc(-c3ccc(-c4nc5nc(O[C@@H]6CO[C@H]7[C@@H]6OC[C@H]7O)[nH]c5cc4Cl)cc3)cc2)n1 [Example 130] | 
322% | 2 nM | O=C1CC(c2ccc(-c3ccc(-c4nc5nc(O[C@@H]6CO[C@H]7[C@@H]6OC[C@H]7O)[nH]c5cc4Cl)cc3)cc2)CN1 (stereo partly drawn) [Example 149] | 
337% | 2 nM | O[C@@H]1CO[C@H]2[C@@H]1OC[C@H]2Oc1nc2nc(-c3ccc(-c4ccc(Cn5ncnn5)cc4)cc3)c(Cl)cc2[nH]1 [Example 142] | 
285% | 3 nM | Cc1nnc(-c2ccc(-c3ccc(-c4nc5nc(O[C@@H]6CO[C@H]7[C@@H]6OC[C@H]7O)[nH]c5cc4Cl)cc3)cc2)o1 [Example 87] | 
357% | 4 nM | O=c1[nH]ccn1-c1ccc(-c2ccc(-c3nc4nc(O[C@@H]5CO[C@H]6[C@@H]5OC[C@H]6O)[nH]c4cc3Cl)cc2)cc1 [Example 73] | 
359% | 1 nM | O[C@@H]1CO[C@H]2[C@@H]1OC[C@H]2Oc1nc2nc(-c3ccc(-c4ccc(C5CNCCO5)cc4)cc3)c(Cl)cc2[nH]1 (stereo partly drawn) [Example 133] | 
337% | 2 nM | CC(CO)(CO)c1ccc(-c2ccc(-c3nc4nc(O[C@@H]5CO[C@H]6[C@@H]5OC[C@H]6O)[nH]c4cc3Cl)cc2)cc1 [Example 79] | 
348% | 4 nM | O[C@@H]1CO[C@H]2[C@@H]1OC[C@H]2Oc1nc2nc(-c3ccc(-c4ccc(Cn5ccnc5)cc4)cc3)c(Cl)cc2[nH]1 [Example 147] | 
354% | 4 nM | OCc1ccc(-c2ccc(-c3nc4nc(O[C@@H]5CO[C@H]6[C@@H]5OC[C@H]6O)[nH]c4cc3Cl)cc2)cc1 [Example 146] | 
420% | 10 nM | O[C@@H]1CO[C@H]2[C@@H]1OC[C@H]2Oc1nc2nc(-c3ccc(C#CC4CCNCC4)cc3)c(Cl)cc2[nH]1 [Example 71] | 
268% | 5 nM | CCN(CC)c1ccc(-c2ccc(-c3nc4nc(O[C@@H]5CO[C@H]6[C@@H]5OC[C@H]6O)[nH]c4cc3Cl)cc2)cc1 [Example 105] | 
289% | 3 nM | Cc1cc(-c2ccc(-c3ccc(-c4nc5nc(O[C@@H]6CO[C@H]7[C@@H]6OC[C@H]7O)[nH]c5cc4Cl)cc3)cc2)c(=O)[nH]n1 [Example 131] | 
350% | 6 nM | O=C(O)C1CCC(c2ccc(-c3ccc(-c4nc5nc(O[C@@H]6CO[C@H]7[C@@H]6OC[C@H]7O)[nH]c5cc4Cl)cc3)cc2)=N1 (stereo partly drawn) [Example 125] | 
72% | 6 nM | C=CCO[C@@H]1CO[C@H]2[C@@H]1OC[C@H]2Oc1nc2nc(-c3ccc(-c4ccccc4)cc3)c(Cl)cc2[nH]1 [Example 18] | 
314% | 4 nM | O=C(O)CCCc1ccc(-c2ccc(-c3nc4nc(O[C@@H]5CO[C@H]6[C@@H]5OC[C@H]6O)[nH]c4cc3Cl)cc2)cc1 [Example 86] | 
276% | 29 nM | CC(C)(O)CN1Cc2cn(-c3ccc(-c4nc5nc(O[C@@H]6CO[C@H]7[C@@H]6OC[C@H]7O)[nH]c5cc4Cl)cc3)nc2C1 [Example 14, (3R,3aR,6R,6aR)-6-[[6-chloro-5-[4-[5-(2-hydroxy-2-methyl-propyl)-5,6-dihydro-4H-pyrrolo[3,4-c]pyrazol-5-ium-2-yl]phenyl]-1H-imidazo[4,5-b]pyridin-2-yl]oxy]-2,3,3a,5,6,6a-hexahydrofuro[3,2-b]furan-3-ol; 2,2,2-trifluoroacetate] | 
305% | 1 nM | O=c1ncn(-c2ccc(-c3ccc(-c4nc5nc(O[C@@H]6CO[C@H]7[C@@H]6OC[C@H]7O)[nH]c5cc4Cl)cc3)cc2)[nH]1 [Example 129] | 
322% | 1 nM | O=c1ccn(-c2ccc(-c3ccc(-c4nc5nc(O[C@@H]6CO[C@H]7[C@@H]6OC[C@H]7O)[nH]c5cc4Cl)cc3)cc2)[nH]1 [Example 150] | 
 |  | NC(=O)c1ncn([C@@H]2O[C@H](CO)[C@@H](O)[C@H]2O)c1N [AICAR] | 35%
304% | 5 nM | N#Cc1ccc(-c2ccc(-c3nc4nc(O[C@@H]5CO[C@H]6[C@@H]5OC[C@H]6O)[nH]c4cc3Cl)cc2)c(F)c1 [Example 102] | 
333% | 4 nM | O=c1[nH]c(-c2ccc(-c3ccc(-c4nc5nc(O[C@@H]6CO[C@H]7[C@@H]6OC[C@H]7O)[nH]c5cc4Cl)cc3)cc2)no1 [Example 138] | 
348% | 8 nM | CC1(c2ccc(-c3ccc(-c4nc5nc(O[C@@H]6CO[C@H]7[C@@H]6OC[C@H]7O)[nH]c5cc4Cl)cc3)cc2)COC1 [Example 145] | 
323% | 2 nM | CN(C)CCOc1ccc(-c2ccc(-c3nc4nc(O[C@@H]5CO[C@H]6[C@@H]5OC[C@H]6O)[nH]c4cc3Cl)cc2)cc1 [Example 151] | 
286% | 2 nM | O[C@@H]1CO[C@H]2[C@@H]1OC[C@H]2Oc1nc2nc(-c3ccc(-c4ccc(-n5cc(C(O)(O)C(F)(F)F)nn5)cc4)cc3)c(Cl)cc2[nH]1 [Example 128] | 
